Tested on: CD8+CD45RO+ T-cell migration towards and away from HIV-1gp120
Assay: Inhibitor profile of T-cell movement towards and away from recombinant X4 gp120 in transmigration assays
Format: cell-based, human
Conditions: for inhibition of migration away from gp120: T-cells including HIV-specific CTL
Experimental: Transmigration assays: Transmigration assays were performed in a transwell system with a polycarbonate membrane of 6.5-mm diameter with 5 μm pore size (Corning, Corning, N.Y.) as described (Kim et al., 1998, Blood 91:4434-4443; Poznansky et al., 2000, Nat Med 6:543-548). Purified T-cell subpopulations (5×10^4 cells) were added to the upper chamber of each well in a total volume of 150 μl Iscove's modified media. SDF-1α (PeproTech, Rocky Hill, N.J.) or recombinant HIV-1 gp120 (Immunodiagnostics, Woburn, Mass., AIDS Reagent Repository, NIH or RW) was used at concentrations ranging from 2 ng/ml to […] in the lower, upper, or both lower and upper chambers of the transwell to generate a standard “checkerboard” analysis matrix of positive, negative and absent gradients. Recombinant variable loop deletion mutants of HIV-1IIIB gp120 including V1, V1.V2, and V1.V2.V3, were also used in these assays. Transwells were incubated for 3 hours at 37° C., after which cells were collected from the lower chamber and counted.
Specific components of the Gi-protein coupled receptor signaling pathway for SDF-1 can be blocked by a number of different chemical inhibitor (Poznansky et al., 2000, Nat Med 6:543-548; Poznansky et al., 2002, Clin. Invest. 109:1101-1110; Sotsios et al., 1999, J. Immunol. 163:5954-5963; Vlahakis et al. 2001, J. Clin. Invest. 107:207-215). The inhibitor profile for movement of resting T-cell subpopulations towards and away from recombinant X4 gp120 in transmigration assays had been established.

| Compound | inhibition of migration away from gp120 | inhibition of T-cell migration towards and away from HIV-1gp120 (CD8+CD45RO+ T-cells incubated with inhibitor prior to transmigration assay, FIG. 2) |
| --- | --- | --- |
| Nc1ncnc2c1nc(Br)n2[C@@H]1O[C@@H]2COP(=O)(O)O[C@H]2[C@H]1O [8-Br-cAMP] | inhibited |  |
| pertussis toxin | inhibited | significantly inhibited |
